Assay results as given in patent publication US20210010053A1, “ASSAYS FOR IMPROVING AUTOMATED ANTIMICROBIAL SUSCEPTIBILITY TESTING ACCURACY” (SELUX DIAGNOSTICS, INC., priority 2019, published 2021).

Assays:
M morganii (NDM) = conditions: 0.01 mM EDTA added to Solution 4, vacuum dried, 3 hours of incubation
Text: (§1) Example 9. […] Multiple different bacterial strains listed in Table 7 were inoculated into each of 3 wells.

K pneumoniae (KPC) = conditions: 0.01 mM EDTA added to Solution 4, vacuum dried, 3 hours of incubation
Text: as §1

E cloacae (IMP) = conditions: 0.01 mM EDTA added to Solution 4, vacuum dried, 3 hours of incubation
Text: as §1

M morganii (KPC) = conditions: 0.01 mM EDTA added to Solution 4, vacuum dried, 3 hours of incubation
Text: as §1

E coli 25922 = conditions: E coli 25922, no carbapenemase; 0.01 mM EDTA added to Solution 4, vacuum dried; 3 hours of incubation
Text: as §1

E cloacae (NDM) = conditions: 0.01 mM EDTA added to Solution 4, vacuum dried, 3 hours of incubation
Text: as §1

K pneumoniae (NDM) = conditions: 0.01 mM EDTA added to Solution 4, vacuum dried, 3 hours of incubation
Text: as §1

beta lactamase = experiment: beta-lactamase inhibitor assay with nitrocefin probe; format: cell-based; conditions: 4μg/mL inhibitor, 0.25 mg/mL nitrocefin, 35° C., 4 hours, absorbance 490 nm, FIG. 1
Protocol: Example 1. Microbes were prepared by diluting colonies into saline to reach a McFarland value of 0.5, which was verified using a spectrophotometer. This was diluted 1:20 into saline and 50 μI of inoculum was added to wells of a 384-well plate. For each strain, 25 μI of solutions containing either 0.25 mg/mL nitrocefin alone (Nitro), 0.25 mg/mL nitrocefin and 4μg/mL clauvulanate (Nitro Clay), or 0.25 mg/mL nitrocefin and 4μg/mL tazobactam (Nitro Tazo) were added to duplicate wells. Inoculated plates were incubated at 35° C., shaking at 150 rpm for 4 hours. Absorbance was read at 490 nm and values shown in FIG. 1 are the absorbance in the indicated condition minus the absorbance from microbial inoculum alone without nitrocefin. A greater value indicates microbial ability to degrade nitrocefin, and thus, the presence of a beta lactamase. A reduction in absorbance value in the presence of an inhibitor indicates the beta lactamase present is sensitive to the inhibitor. […] Further, the inhibitors are both active against each of the strains with known beta lactamases.

SMILES	Carba Test with EDTA (M morganii (NDM))	Carba Test with EDTA (K pneumoniae (KPC))	Carba Test with EDTA (E cloacae (IMP))	Carba Test with EDTA (M morganii (KPC))	Carba Test with EDTA (E coli 25922)	Carba Test with EDTA (E cloacae (NDM))	Carba Test with EDTA (K pneumoniae (NDM))	activity of inhibitor against strains with known beta lactamases (reduction in nitrocefin absorbance) (beta lactamase)
O=C(O)CN(CCN(CC(=O)O)CC(=O)O)CC(=O)O [EDTA, Ethylenediaminetetraacetic acid]	−1923.5	3705.5	−1816.5	1288.5	−1541.5	−2084.5	−2222.5	–
O=C(O)[C@H]1/C(=C/CO)O[C@@H]2CC(=O)N21 [clauvulanate]	–	–	–	–	–	–	–	active
C[C@]1(Cn2ccnn2)[C@H](C(=O)O)N2C(=O)C[C@H]2S1(=O)=O [tazobactam]	–	–	–	–	–	–	–	active
